As usually defined, the melting point is the temperature, or range, at which the solid turns liquid.

Counter-ions that a name gives are not always drawn. Like-named read-outs stand apart in the source and are kept apart here.

For data set [1], the system named is TNFalpha. In words: LPS-stimulated cytokine production in human whole blood. The format is cell-based.
Protocol: Assay: Test compound concentrations were prepared at 10× concentrations and LPS prepared at 1 ug/ml (final conc. of 50 ng/ml LPS) and added in 50 uL volumes to 1.5 mL eppendorf tubes. Heparinized human whole blood was obtained from healthy volunteers and was dispensed into eppendorf tubes or multiwell plates containing compounds and LPS in 0.2-0.4 mL volumes and the tubes incubated at 37 C. In some studies, compound was incubated with blood for up to 30 min prior to addition of LPS. Following a 4 hour incubation, the tubes or plates were centrifuged to remove cells and plasma was withdrawn and frozen at −80 C. Cytokine measurement: IL-1beta and/or TNFalpha were quantified using a standardized ELISA, or similar technology. Concentrations of IL-1beta or TNFalpha were determined from standard curves of the appropriate cytokine and IC50 values for test compound (concentration that inhibited 50% of LPS-stimulated cytokine production) were calculated by linear regression analysis.
The target in data set [2] is T1, Recombinant human p38α (Homo sapiens, UniProt Q16539).
T1 construct: GST; made in house
Nature of the data set: Fluorescence anisotropy kinase binding assay (standard or low volume). The settings on record: for active in the assay (pIC50, p38α binding): 12 nM p38α, 5 nM fluorescent ligand; for IC50: second end given as 'less than', read-out: pIC50, broad range of data upon multiple runs (converted). Summed up: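 Activated GST-tagged recombinant human p38α (pre-activated with MBP-MKK6 DD) at 12 nM final with 5 nM rhodamine green-labelled pyridinylimidazole tracer in pH 7.5 HEPES/CHAPS/DTT/MgCl2 buffer. Test compound 0.28 nM–16.6 μM or 0.02 nM–25 μM final, 3% or 1.7% DMSO; 30–60 min at room temperature. Fluorescence anisotropy read (ex 485/em 535 nm) for Ki.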
Background: In fluorescence polarisation assays a small probe gives low polarisation when free and higher when bound to something large.

The mark [3] stands for this setting: LPS-stimulated TNF-alpha, bound, read-out: IC50.

T1 sequence (Q16539 whole entry): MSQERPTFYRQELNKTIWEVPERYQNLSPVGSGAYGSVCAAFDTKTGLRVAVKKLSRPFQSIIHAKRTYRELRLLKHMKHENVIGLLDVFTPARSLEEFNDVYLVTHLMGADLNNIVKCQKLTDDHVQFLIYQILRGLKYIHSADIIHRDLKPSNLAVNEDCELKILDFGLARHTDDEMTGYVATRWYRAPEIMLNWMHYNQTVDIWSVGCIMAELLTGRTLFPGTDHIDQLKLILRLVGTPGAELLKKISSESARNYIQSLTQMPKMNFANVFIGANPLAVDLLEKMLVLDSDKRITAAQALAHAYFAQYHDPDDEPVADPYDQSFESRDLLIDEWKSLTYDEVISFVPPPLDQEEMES

For the compound `Cc1c(F)cc(C(=O)NC(C)C)cc1-c1nc(NCCN(C)C)nc2c1CNC(=O)N2c1c(F)cccc1F` [Example 111(c), 3-(8-(2,6-difluorophenyl)-2-{[2-(dimethylamino)ethyl]amino}-7-oxo-5,6,7,8-tetrahydropyrimido[4,5-d]pyrimidin-4-yl)-5-fluoro-4-methyl-N-(1-methylethyl)benzamide], the IC50 in data set [1] (upper end printed as greater than 0.1 uM, read-out: IC50, range of data upon multiple runs) lay in the range of 40 to 100 nM. Regarding `Cc1ccc(C(=O)NC(C)C)cc1-c1nc(N2CCCC2)nc2c1CNC(=O)N2c1c(F)cccc1F` [Example 67, 3-[8-(2,6-difluorophenyl)-7-oxo-2-(1-pyrrolidinyl)-5,6,7,8-tetrahydropyrimido[4,5-d]pyrimidin-4-yl]-4-methyl-N-(1-methylethyl)benzamide], in data set [1] (setting [3]), the IC50 was above 1000 nM. On to `Cc1ccc(C(=O)NC(C)C)cc1-c1nc(N2CCCCCC2)nc2c1CNC(=O)N2c1c(F)cccc1F` [Example 66, 3-[8-(2,6-difluorophenyl)-2-(hexahydro-1H-azepin-1-yl)-7-oxo-5,6,7,8-tetrahydropyrimido[4,5-d]pyrimidin-4-yl]-4-methyl-N-(1-methylethyl)benzamide], for which the IC50 in data set [1] (setting [3]) is above 1000 nM. On the same count and under the same terms, in the case of `Cc1ccc(C(=O)Nc2cccc(S(N)(=O)=O)c2)cc1-c1nc(NCCN(C)C)nc2c1CNC(=O)N2c1c(F)cccc1F` [Example 226, N-[3-(aminosulfonyl)phenyl]-3-(8-(2,6-difluorophenyl)-2-{[2-(dimethylamino)-ethyl]amino}-7-oxo-5,6,7,8-tetrahydropyrimido[4,5-d]pyrimidin-4-yl)-4-methylbenzamide] it was above 1000 nM.

`Cc1ccc(C(=O)NC[C@@H](C)O)cc1-c1nc(NCCN(C)C)nc2c1CNC(=O)N2c1c(F)cccc1F` [Example 128, 3-(8-(2,6-difluorophenyl)-2-{[2-(dimethylamino)ethyl]amino}-7-oxo-5,6,7,8-tetrahydropyrimido[4,5-d]pyrimidin-4-yl)-N-[(2R)-2-hydroxypropyl]-4-methylbenzamide]: the IC50 in data set [1] (setting [3]) is above 1000 nM.

With `CCN(CC)C(=O)c1ccc(C)c(-c2nc(N(C)CCCN(C)C)nc3c2CNC(=O)N3c2c(F)cccc2F)c1` [Example 161, 3-{8-(2,6-difluorophenyl)-2-[[3-(dimethylamino)propyl](methyl)amino]-7-oxo-5,6,7,8-tetrahydropyrimido[4,5-d]pyrimidin-4-yl}-N,N-diethyl-4-methylbenzamide], the melting point was in the range of 106 to 108 °C. Moreover, the IC50 in data set [1] (setting [3]) was above 1000 nM. Besides, in data set [2], the “active in the assay (pIC50, p38α binding)” value is listed as “active”. As for `CCN(CC)C(=O)c1ccc(C)c(-c2nc(N3CCN(C)CC3)nc3c2CNC(=O)N3c2c(F)cccc2F)c1` [Example 162, 3-[8-(2,6-difluorophenyl)-2-(4-methyl-1-piperazinyl)-7-oxo-5,6,7,8-tetrahydropyrimido[4,5-d]pyrimidin-4-yl]-N,N-diethyl-4-methylbenzamide], the melting point is 201 to 205 °C (dec.). The IC50 in data set [1] (setting [3]) is above 1000 nM. In data set [2], the IC50 was at least 1260 nM. For the compound `Cc1ccc(C(=O)NC(C)C)cc1-c1nc(N2CCC(n3c(=O)[nH]c4cc(Cl)ccc43)CC2)nc2c1CNC(=O)N2c1c(F)cccc1F` [Example 73, 3-[2-[4-(5-chloro-2-oxo-2,3-dihydro-1H-benzimidazol-1-yl)-1-piperidinyl]-8-(2,6-difluorophenyl)-7-oxo-5,6,7,8-tetrahydropyrimido[4,5-d]pyrimidin-4-yl]-4-methyl-N-(1-methylethyl)benzamide trifluoroacetate], in data set [1] (setting [3]), the IC50 was above 1000 nM.

Take `CNC(=O)c1ccc(C)c(-c2nc(S(C)(=O)=O)nc3c2CNC(=O)N3c2c(F)cccc2F)c1` [163(b), 3-[8-(2,6-difluorophenyl)-2-(methylsulfonyl)-7-oxo-5,6,7,8-tetrahydropyrimido[4,5-d]pyrimidin-4-yl]-N,4-dimethylbenzamide]: in data set [1] (setting [3]), the IC50 was above 1000 nM. The “active in the assay (pIC50, p38α binding)” value in data set [2] is “active”. Regarding `CCc1ccc(C(=O)Nc2ccc(F)c(F)c2)cc1-c1nc(NCCN(C)C)nc2c1CNC(=O)N2c1c(F)cccc1F` [Example 143, N-(3,4-difluorophenyl)-3-(8-(2,6-difluorophenyl)-2-{[2-(dimethylamino)-ethyl]amino}-7-oxo-5,6,7,8-tetrahydropyrimido[4,5-d]pyrimidin-4-yl)-4-ethylbenzamide trifluoroacetate], the IC50 in data set [1] (setting [3]) is above 1000 nM. The same measure, in the same setting: the figure for `Cc1ccc(C(=O)NC[C@H](C)O)cc1-c1nc(NCCN(C)C)nc2c1CNC(=O)N2c1c(F)cccc1F` [Example 129, 3-(8-(2,6-difluorophenyl)-2-{[2-(dimethylamino)ethyl]amino}-7-oxo-5,6,7,8-tetrahydropyrimido[4,5-d]pyrimidin-4-yl)-N-[(2S)-2-hydroxypropyl]-4-methylbenzamide] is above 1000 nM; for `Cc1ccc(C(=O)NC(C)C)cc1-c1nc(N2CCOCC2)nc2c1CNC(=O)N2c1c(F)cccc1F` [Example 68, 3-[8-(2,6-difluorophenyl)-2-(4-morpholinyl)-7-oxo-5,6,7,8-tetrahydropyrimido[4,5-d]pyrimidin-4-yl]-4-methyl-N-(1-methylethyl)benzamide trifluoroacetate] it is above 1000 nM. `CCc1ccc(C(=O)O)cc1-c1nc(NCCN(C)C)nc2c1CNC(=O)N2c1c(F)cccc1F` [Example 141, 3-(8-(2,6-difluorophenyl)-2-{[2-(dimethylamino)ethyl]amino}-7-oxo-5,6,7,8-tetrahydropyrimido[4,5-d]pyrimidin-4-yl)-4-ethylbenzoic acid]: the figures for the IC50 in data set [1] (setting [3]) and in data set [2] were above 1000 nM and at least 1260 nM, respectively.

(Values after patent publication US20090239846A1, “Novel Compounds” (Glaxo Group Limited, priority 2005, published 2009).)
